For assay [1], the target named is EGFR Del19/T790M/C797S (Homo sapiens, UniProt P00533, C797S/DEL746-750/T790M). In words: Biochemical EGFR kinase inhibition assay (Lance Ultra TR-FRET), triple mutant del19/T790M/C797S. An outline of the steps:
(§1)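 Kinase activity is measured by TR-FRET phosphopeptide detection. Compounds span 0.003 μM to 10 μM; the 1 h reaction at room temperature is quenched with EDTA, then labelled antibody (2 nM) is incubated 60 min before reading.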

The target of assay [2] is EGFR L858R/T790M/C797S (Homo sapiens, UniProt P00533, C797S/L858R/T790M). As to the kind of experiment: Biochemical EGFR kinase inhibition assay (Lance Ultra TR-FRET), triple mutant L858R/T790M/C797S. An outline of the steps:
as §1
(TR-FRET usually uses a lanthanide donor and a delayed reading to cut background.)

The target in assay [3] is EGFR Del19/C797S (Homo sapiens, UniProt P00533, C797S/DEL746-750). As to the kind of experiment: Biochemical EGFR kinase inhibition assay (Lance Ultra TR-FRET), double mutant del19/C797S. An outline of the steps:
as §1

Assay [4] deals with EGFR L858R/C797S (Homo sapiens, UniProt P00533, C797S/L858R). As to the kind of experiment: Biochemical EGFR kinase inhibition assay (Lance Ultra TR-FRET), double mutant L858R/C797S. An outline of the steps: as §1
For assay [5], the target named is EGFR wildtype (WT) (Homo sapiens, UniProt P00533). In words: Biochemical EGFR kinase inhibition assay (Lance Ultra TR-FRET), wildtype. An outline of the steps: as §1
[6] abbreviates: IC50 Del19/T790M/C797S (nM), 100 μM ATP.
Where [7] appears, read: Km ATP, read-out: IC50 Del19/T790M/C797S (nM) Km ATP.
Setting [8] is: IC50 L858R/T790M/C797S (nM), 100 μM ATP.
Setting [9] is: Km ATP, read-out: IC50 L858R/T790M/C797S (nM) Km ATP.
The mark [10] stands for this setting: IC50 Del19/C797S (nM), 100 μM ATP.
[11] abbreviates: Km ATP, read-out: IC50 Del19/C797S (nM) Km ATP.
Setting [12] is: IC50 L858R/C797S (nM), 100 μM ATP.
The mark [13] stands for this setting: Km ATP, read-out: IC50 L858R/C797S (nM) Km ATP.
[14] abbreviates: Km ATP, read-out: IC50 WT (nM) Km ATP.
Setting [15] is: ATP at Km, read-out: IC50 Del19/T790M/C797S (nM), Km ATP.
[16] abbreviates: ATP at Km, read-out: IC50 L858R/T790M/C797S (nM), Km ATP.
The mark [17] stands for this setting: ATP at Km, read-out: IC50 Del19/C797S (nM), Km ATP.
The mark [18] stands for this setting: ATP at Km, read-out: IC50 L858R/C797S (nM), Km ATP.
The mark [19] stands for this setting: ATP at Km, read-out: IC50 WT (nM), Km ATP.

Read-outs that look alike come from different tables or passages of the source.

Chain of EGFR L858R/C797S (P00533 25-1210 C797S/L858R): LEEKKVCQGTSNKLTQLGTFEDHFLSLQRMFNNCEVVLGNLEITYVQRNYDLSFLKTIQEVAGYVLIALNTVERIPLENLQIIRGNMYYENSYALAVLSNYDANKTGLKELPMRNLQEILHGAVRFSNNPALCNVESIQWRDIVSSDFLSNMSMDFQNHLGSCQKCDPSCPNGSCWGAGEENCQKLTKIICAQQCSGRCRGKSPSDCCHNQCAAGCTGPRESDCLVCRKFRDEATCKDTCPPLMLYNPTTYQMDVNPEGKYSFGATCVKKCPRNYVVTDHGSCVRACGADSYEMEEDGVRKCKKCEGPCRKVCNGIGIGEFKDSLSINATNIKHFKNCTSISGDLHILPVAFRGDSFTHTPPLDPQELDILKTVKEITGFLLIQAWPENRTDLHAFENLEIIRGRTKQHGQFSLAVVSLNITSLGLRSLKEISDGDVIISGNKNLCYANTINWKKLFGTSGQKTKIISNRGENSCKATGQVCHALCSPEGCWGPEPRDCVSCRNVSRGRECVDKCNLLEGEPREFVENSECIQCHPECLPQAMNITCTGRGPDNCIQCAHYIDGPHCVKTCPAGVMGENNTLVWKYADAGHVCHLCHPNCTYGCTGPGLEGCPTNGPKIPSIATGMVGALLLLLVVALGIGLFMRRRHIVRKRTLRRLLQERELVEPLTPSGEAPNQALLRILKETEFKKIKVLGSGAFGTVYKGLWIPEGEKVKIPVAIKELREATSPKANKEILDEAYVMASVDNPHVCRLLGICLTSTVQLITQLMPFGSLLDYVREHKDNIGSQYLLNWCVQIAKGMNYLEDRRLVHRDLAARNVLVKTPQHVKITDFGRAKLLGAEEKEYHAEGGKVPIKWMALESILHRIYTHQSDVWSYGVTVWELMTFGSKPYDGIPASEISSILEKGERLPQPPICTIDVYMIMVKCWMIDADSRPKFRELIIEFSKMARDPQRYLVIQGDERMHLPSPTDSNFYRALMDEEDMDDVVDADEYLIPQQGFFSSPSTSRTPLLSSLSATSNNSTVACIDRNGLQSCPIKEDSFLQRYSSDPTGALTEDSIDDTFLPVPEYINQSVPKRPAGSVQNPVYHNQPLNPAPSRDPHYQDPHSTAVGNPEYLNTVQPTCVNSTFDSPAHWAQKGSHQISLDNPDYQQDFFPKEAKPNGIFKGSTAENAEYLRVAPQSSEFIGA
Chain of EGFR wildtype (WT) (P00533 25-1210): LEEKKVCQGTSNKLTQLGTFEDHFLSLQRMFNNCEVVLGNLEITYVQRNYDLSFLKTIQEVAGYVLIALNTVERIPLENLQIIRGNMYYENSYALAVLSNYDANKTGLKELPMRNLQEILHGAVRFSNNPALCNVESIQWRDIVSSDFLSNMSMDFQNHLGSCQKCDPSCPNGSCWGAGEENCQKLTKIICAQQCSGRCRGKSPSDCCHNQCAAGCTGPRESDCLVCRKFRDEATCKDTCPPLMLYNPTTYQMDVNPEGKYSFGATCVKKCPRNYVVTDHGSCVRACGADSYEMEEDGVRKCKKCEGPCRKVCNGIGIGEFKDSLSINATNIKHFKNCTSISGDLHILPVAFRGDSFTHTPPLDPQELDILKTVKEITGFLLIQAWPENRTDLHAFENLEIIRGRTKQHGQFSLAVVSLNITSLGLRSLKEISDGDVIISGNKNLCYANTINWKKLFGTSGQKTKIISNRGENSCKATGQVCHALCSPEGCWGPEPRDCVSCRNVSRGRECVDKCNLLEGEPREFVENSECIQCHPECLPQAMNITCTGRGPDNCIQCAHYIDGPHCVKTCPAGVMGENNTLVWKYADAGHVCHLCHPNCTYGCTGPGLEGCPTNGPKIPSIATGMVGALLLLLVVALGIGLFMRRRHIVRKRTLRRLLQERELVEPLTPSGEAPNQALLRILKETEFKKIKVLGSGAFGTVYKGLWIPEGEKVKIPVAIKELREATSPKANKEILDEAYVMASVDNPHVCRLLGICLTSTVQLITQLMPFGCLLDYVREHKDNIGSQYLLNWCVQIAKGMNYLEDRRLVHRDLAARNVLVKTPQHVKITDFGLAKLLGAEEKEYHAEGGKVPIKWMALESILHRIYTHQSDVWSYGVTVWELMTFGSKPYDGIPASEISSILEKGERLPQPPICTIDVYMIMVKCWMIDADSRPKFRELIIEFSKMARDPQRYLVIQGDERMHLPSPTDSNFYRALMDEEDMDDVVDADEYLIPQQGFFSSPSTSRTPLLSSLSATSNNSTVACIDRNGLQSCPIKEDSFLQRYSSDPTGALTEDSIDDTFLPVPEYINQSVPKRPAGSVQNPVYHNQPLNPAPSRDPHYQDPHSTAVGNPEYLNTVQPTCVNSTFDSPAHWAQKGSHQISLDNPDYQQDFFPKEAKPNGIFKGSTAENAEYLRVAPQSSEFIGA
Chain of EGFR Del19/C797S (P00533 with tags, fused parts or gaps DEL746-750/C797S): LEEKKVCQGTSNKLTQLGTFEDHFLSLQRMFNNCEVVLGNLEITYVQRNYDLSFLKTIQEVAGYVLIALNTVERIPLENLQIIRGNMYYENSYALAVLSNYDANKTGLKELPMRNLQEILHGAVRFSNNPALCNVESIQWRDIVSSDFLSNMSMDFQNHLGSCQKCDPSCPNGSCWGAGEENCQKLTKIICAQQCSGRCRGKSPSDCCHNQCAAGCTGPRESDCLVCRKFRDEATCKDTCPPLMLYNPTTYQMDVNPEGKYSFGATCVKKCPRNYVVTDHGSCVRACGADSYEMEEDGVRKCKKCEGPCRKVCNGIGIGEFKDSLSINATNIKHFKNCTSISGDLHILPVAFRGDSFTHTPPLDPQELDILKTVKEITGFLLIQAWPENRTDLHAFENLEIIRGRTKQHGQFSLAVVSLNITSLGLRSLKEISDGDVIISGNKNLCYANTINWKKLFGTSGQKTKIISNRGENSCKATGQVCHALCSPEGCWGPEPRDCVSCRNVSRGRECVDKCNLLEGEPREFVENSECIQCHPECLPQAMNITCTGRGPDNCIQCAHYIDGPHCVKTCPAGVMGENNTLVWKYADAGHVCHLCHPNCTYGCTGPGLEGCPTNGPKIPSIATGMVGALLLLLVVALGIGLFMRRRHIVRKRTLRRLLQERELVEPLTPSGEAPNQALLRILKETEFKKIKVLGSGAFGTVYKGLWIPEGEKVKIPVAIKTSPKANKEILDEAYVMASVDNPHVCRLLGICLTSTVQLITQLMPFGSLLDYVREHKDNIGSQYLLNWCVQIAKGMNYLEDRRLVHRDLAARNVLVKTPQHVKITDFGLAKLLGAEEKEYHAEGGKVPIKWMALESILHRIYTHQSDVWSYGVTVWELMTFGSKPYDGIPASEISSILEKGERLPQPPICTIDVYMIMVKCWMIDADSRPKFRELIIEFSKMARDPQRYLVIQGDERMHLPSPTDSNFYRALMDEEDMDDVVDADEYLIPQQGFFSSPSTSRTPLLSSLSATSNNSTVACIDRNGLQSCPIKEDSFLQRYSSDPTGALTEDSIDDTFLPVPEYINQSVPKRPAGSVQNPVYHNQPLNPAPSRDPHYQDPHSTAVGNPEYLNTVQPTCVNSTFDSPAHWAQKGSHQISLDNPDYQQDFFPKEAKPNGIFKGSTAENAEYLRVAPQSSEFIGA
Chain of EGFR Del19/T790M/C797S (P00533 with tags, fused parts or gaps DEL746-750/T790M/C797S): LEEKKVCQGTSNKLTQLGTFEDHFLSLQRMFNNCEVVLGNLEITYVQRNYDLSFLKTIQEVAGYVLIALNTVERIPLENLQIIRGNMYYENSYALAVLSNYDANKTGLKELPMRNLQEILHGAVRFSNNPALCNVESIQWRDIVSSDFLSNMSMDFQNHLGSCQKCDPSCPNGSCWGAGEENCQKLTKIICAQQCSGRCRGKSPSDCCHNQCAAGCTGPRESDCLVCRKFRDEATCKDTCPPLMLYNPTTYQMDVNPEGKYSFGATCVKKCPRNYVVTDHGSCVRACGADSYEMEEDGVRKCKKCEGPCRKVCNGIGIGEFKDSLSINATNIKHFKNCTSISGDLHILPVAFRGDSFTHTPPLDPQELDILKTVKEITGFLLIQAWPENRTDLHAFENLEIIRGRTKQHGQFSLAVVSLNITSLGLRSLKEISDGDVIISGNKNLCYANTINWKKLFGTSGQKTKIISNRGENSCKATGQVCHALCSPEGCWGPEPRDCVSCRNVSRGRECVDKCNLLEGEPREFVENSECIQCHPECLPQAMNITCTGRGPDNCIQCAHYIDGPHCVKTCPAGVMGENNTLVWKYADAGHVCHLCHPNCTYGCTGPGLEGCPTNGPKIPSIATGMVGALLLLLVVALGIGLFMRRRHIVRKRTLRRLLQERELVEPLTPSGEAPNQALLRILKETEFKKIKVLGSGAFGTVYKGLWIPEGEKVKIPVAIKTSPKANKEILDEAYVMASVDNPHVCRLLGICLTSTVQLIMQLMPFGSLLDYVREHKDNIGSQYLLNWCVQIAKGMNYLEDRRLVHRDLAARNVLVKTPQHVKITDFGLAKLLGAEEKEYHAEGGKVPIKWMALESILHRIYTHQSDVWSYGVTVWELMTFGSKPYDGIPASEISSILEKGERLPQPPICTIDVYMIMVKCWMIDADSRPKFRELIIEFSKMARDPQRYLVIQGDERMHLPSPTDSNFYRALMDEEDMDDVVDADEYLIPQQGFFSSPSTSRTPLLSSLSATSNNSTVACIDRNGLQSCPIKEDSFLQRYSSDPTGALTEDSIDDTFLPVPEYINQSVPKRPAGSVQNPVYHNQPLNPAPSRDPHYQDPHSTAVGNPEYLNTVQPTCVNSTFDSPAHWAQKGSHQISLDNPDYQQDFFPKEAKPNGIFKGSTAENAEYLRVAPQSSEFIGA

On to `CC1(CO)CCN(c2cc(Nc3ccnc(-c4cnn(S(=O)(=O)C5CC5)c4)n3)ncc2C#Cc2cnn(CCN3CCOCC3)c2)CC1` [Example 232, (1-(2-((2-(1-(Cyclopropylsulfonyl)-1H-pyrazol-4-yl)pyrimidin-4-yl)amino)-5-((1-(2-morpholinoethyl)-1H-pyrazol-4-yl)ethynyl)pyridin-4-yl)-4-methylpiperidin-4-yl)methanol], for which the IC50 worked out at 1.3 nM in assay [1] (setting [6]); 0.8 nM in assay [1] (setting [7]); 1.3 nM in assay [2] (setting [8]); 0.5 nM in assay [2] (setting [9]); 1.1 nM in assay [3] (setting [10]); 0.4 nM in assay [3] (setting [11]). The IC50 came out at 5.9 nM in assay [4] (setting [12]); 0.2 nM in assay [4] (setting [13]); 719 nM in assay [5] (IC50 WT (nM), 100 μM ATP); 0.9 nM in assay [5] (setting [14]).
For `O=S(=O)(C1CC1)n1cc(-c2nccc(Nc3cc(N[C@H]4CC[C@@H](O)CC4)c(C#Cc4cnn(C(F)(F)F)c4)cn3)n2)cn1` [Example 102, (1s,4s)-4-((2-((2-(1-(Cyclopropylsulfonyl)-1H-pyrazol-4-yl)pyrimidin-4-yl)amino)-5-((1-(trifluoromethyl)-1H-pyrazol-4-yl)ethynyl)pyridin-4-yl)amino)cyclohexan-1-ol], the IC50 in assay [1] (setting [6]) amounted to 2.7 nM; in assay [1] (setting [7]) it was 2.8 nM; in assay [2] (setting [8]), 7.6 nM; in assay [2] (setting [9]), 2.1 nM; in assay [3] (setting [10]), 26.6 nM; in assay [3] (setting [11]), 13.9 nM. Also, the IC50 is 1030 nM in assay [4] (setting [12]); 15.7 nM in assay [4] (setting [13]); more than 10000 nM in assay [5] (IC50 WT (nM), 100 μM ATP); 186 nM in assay [5] (setting [14]).
As to `CC1(CO)CCN(c2cc(Nc3ccnc(-c4cnn(S(=O)(=O)C5CC5)c4)n3)ncc2C#Cc2cnn(CC3COCCO3)c2)CC1` (centres unmarked) [Example 242, (1-(5-((1-((1,4-Dioxan-2-yl)methyl)-1H-pyrazol-4-yl)ethynyl)-2-((2-(1-(cyclopropylsulfonyl)-1H-pyrazol-4-yl)pyrimidin-4-yl)amino)pyridin-4-yl)-4-methylpiperidin-4-yl)methanol], the IC50 in assay [1] (setting [15]) stood at 0.8 nM; in assay [1] (setting [6]), 1 nM; in assay [2] (setting [16]), 0.4 nM; in assay [2] (setting [8]) it was 1.6 nM; in assay [3] (setting [17]), 0.7 nM; in assay [3] (setting [10]) it was 0.6 nM. Further, the IC50 in assay [4] (setting [18]) was 1 nM; in assay [4] (setting [12]), 13.8 nM; in assay [5] (setting [19]) it was 4.6 nM; in assay [5] (IC50 WT (nM), 100 μM ATP), 2610 nM.
As for `CC1(CO)CCN(c2cc(Nc3ccnc(-c4cnn(S(=O)(=O)C5CC5)c4)n3)ncc2C#CC2COC2)CC1` [Example 352, (1-(2-((2-(1-(Cyclopropylsulfonyl)-1H-pyrazol-4-yl)pyrimidin-4-yl)amino)-5-(oxetan-3-ylethynyl)pyridin-4-yl)-4-methylpiperidin-4-yl)methanol], the IC50 in assay [1] (setting [6]) is 0.3 nM; in assay [1] (Km ATP, read-out: IC50 Del19/T790M/C797S (nM), Km ATP) it was 0.3 nM; in assay [2] (setting [8]), 0.2 nM; in assay [2] (Km ATP, read-out: IC50 L858R/T790M/C797S (nM), Km ATP), 0.1 nM; in assay [3] (setting [10]) it was 0.5 nM; in assay [3] (Km ATP, read-out: IC50 Del19/C797S (nM), Km ATP) it was 0.6 nM. The IC50 came out at 9.5 nM in assay [4] (setting [12]); 1.6 nM in assay [4] (Km ATP, read-out: IC50 L858R/C797S (nM), Km ATP); 820 nM in assay [5] (IC50 WT (nM), 100 μM ATP); 5.5 nM in assay [5] (Km ATP, read-out: IC50 WT (nM), Km ATP).
Regarding `Cn1cc(C#Cc2cnc(Nc3ccnc(Nc4ccccc4S(C)(=O)=O)n3)cc2N2CCC(C)(CO)CC2)cn1` [Example 270, (4-Methyl-1-(5-((1-methyl-1H-pyrazol-4-yl)ethynyl)-2-((2-((2-(methylsulfonyl)phenyl)amino)pyrimidin-4-yl)amino)pyridin-4-yl)piperidin-4-yl)methanol], the IC50 in assay [1] (setting [15]) was 0.7 nM; in assay [1] (setting [6]), 1.2 nM; in assay [2] (setting [16]) it was 1.6 nM; in assay [2] (setting [8]), 4.8 nM; in assay [3] (setting [17]), 27.9 nM; in assay [3] (setting [10]) it was 28 nM. Besides, the IC50 in assay [4] (setting [18]) was 72.8 nM; in assay [4] (setting [12]), 2800 nM; in assay [5] (setting [19]), 111 nM; in assay [5] (IC50 WT (nM), 100 μM ATP) it was more than 10000 nM.
